The target of this assay is T1, SARS2 protease (Severe acute respiratory syndrome coronavirus 2, UniProt P0DTD1).
T1 construct: SARS2 protease was added to a final concentration of 30 nM
Description: SARS-CoV-2 protease inhibition assay (SARS2 FRET protease assay). The format is biochemical. Conditions: IC50 (μM), SARS2 protease 30 nM, peptide substrate 1.3 μM, 120 minutes at 37° C., compounds 20 μM to 0.075 nM.
Usually IC50 stands for the point on the concentration scale where inhibition reaches its midpoint. `CCCC[C@H](NC(=O)O[C@H](c1ccccc1)C(C)(C)c1cccc(Cl)c1)C(=O)N[C@@H](C[C@@H]1CCNC1=O)C(=O)C(=O)NC1CC1` [Compound A178] gave an IC50 of 1.04 µM.
The molecule `O=C(N[C@@H](CCC(F)F)C(=O)N[C@@H](C[C@@H]1CCNC1=O)C(=O)C(=O)NC1CC1)OC(c1ccccc1)C(F)(F)c1cccc(Cl)c1` (stereo partly drawn) [Compound A179, 2-(3-chlorophenyl)-2,2-difluoro-1-phenylethyl ((S)-1-(((S)-4-(cyclopropylamino)-3,4-dioxo-1-((S)-2-oxopyrrolidin-3-yl)butan-2-yl)amino)-5,5-difluoro-1-oxopentan-2-yl)carbamate] displayed an IC50 of 0.006 µM.
`O=C(N[C@@H](CCCF)C(=O)N[C@@H](C[C@@H]1CCNC1=O)C(=O)C(=O)NC1CC1)OC(c1ccccc1)C(F)(F)c1cccc(Cl)c1` (stereo partly shown) [Compound A180]: inhibition was half-maximal at 0.095 µM (IC50). Against the preceding molecule, the IC50 is about 16-fold higher.
On to `CC(C)C[C@H](NC(=O)OC(C(C)C)C(F)(F)c1cccc(C2CC2)c1)C(=O)N[C@@H](C[C@@H]1CCNC1=O)C(=O)C(=O)NC1CC1` (stereo partly shown) [Compound A181], for which the IC50 amounted to 0.52 µM.
As for `CC(C)C[C@H](NC(=O)OC(c1ccccc1)C(F)(F)c1cccc(C(C)C)c1)C(=O)N[C@@H](C[C@@H]1CCNC1=O)C(=O)C(=O)NC1CC1` (stereo partly shown) [Compound A182], the IC50 was found to be 0.001 µM.
`CCCC[C@H](NC(=O)OC(c1ccccc1)C(F)(F)c1cccc(Cl)c1)C(=O)N[C@H](C=O)C[C@H]1CCNC1=O` (stereo partly shown) [Compound A183]: half-maximal inhibition (IC50) required 0.019 µM.
With `CCCC[C@H](NC(=O)OC(c1ccccc1)C(F)(F)c1cccc(Cl)c1)C(=O)N[C@@H](C[C@H]1CCNC1=O)C(=O)C(=O)NCC` (stereo partly shown) [Compound A185], it took 0.91 µM to reach half-maximal inhibition (IC50). This IC50 lies about 48-fold higher than the previous one.
In the case of `CCCC(=O)OC([C@H](C[C@@H]1CCNC1=O)NC(=O)[C@H](CC1CCCCC1)NC(=O)O[C@H](c1ccccc1)C(F)(F)c1cccc(Cl)c1)S(=O)(=O)O` (stereo partly shown) [Compound A186] it was 0.319 µM; in that of `CCNC(=O)C(=O)[C@H](C[C@H]1CCNC1=O)NC(=O)[C@H](CC(C)C)NC(=O)OC(c1ccccc1)C(F)(F)c1cccc(Cl)c1` (stereo partly shown) [Compound A188], 0.392 µM; in that of `CCCC[C@H](NC(=O)OC(c1ccccc1)C(C)(C)c1cccc(Cl)c1)C(=O)N[C@@H](C[C@@H]1CCNC1=O)C(=O)C(=O)NC1CC1` (stereo partly shown) [Compound A189], 1.37 µM.
As to `CC(C)C[C@H](NC(=O)OC(c1ccccc1)C(F)(F)c1cccc(-c2ccccc2)c1)C(=O)N[C@@H](C[C@@H]1CCNC1=O)C(=O)C(=O)NC1CC1` (stereo partly shown) [Compound A191], the IC50 is 0.006 µM.
The molecule `CCCC[C@H](NC(=O)OC(c1ccccc1)C(F)(F)c1cccc(Cl)c1)C(=O)NC(C)(C=O)CC1CCNC1=O` (stereo partly shown) [Compound A192] returned an IC50 of 0.978 µM.
Consider `CC(C)C[C@H](NC(=O)O[C@@H](c1ccccc1)C(F)(F)c1cccc(C(C)C)c1)C(=O)N[C@@H](C[C@@H]1CCNC1=O)C(=O)C(=O)NC1CC1` [Compound A193], for which it took 0.135 µM to reach half-maximal inhibition (IC50). This IC50 lies about 7.2-fold lower than the previous one.
The molecule `CC(C)C[C@H](NC(=O)O[C@H](c1ccccc1)C(F)(F)c1cccc(C(C)C)c1)C(=O)N[C@@H](C[C@@H]1CCNC1=O)C(=O)C(=O)NC1CC1` [Compound A194] displayed an IC50 of 0.005 µM. This IC50 lies about 27-fold lower than the previous one.
Then `CCCC[C@H](NC(=O)O[C@@H](c1ccccc1)C(F)(F)c1cccc(Cl)c1)C(=O)N[C@@H](C[C@@H]1CCCNC1=O)C(=O)C(=O)NC1CC1` [Compound A195], with 0.211 µM.
Consider `CC(C)C[C@H](NC(=O)OC(c1ccccc1)C(C)(C)c1cccc(C(F)(F)F)c1)C(=O)N[C@@H](C[C@@H]1CCNC1=O)C(=O)C(=O)NC1CC1` (stereo partly shown) [Compound A197], for which the IC50 turned out to be 0.027 µM.
`CC(C)C[C@H](NC(=O)OC(C(C)C)C(F)(F)c1cccc(C2CC2)c1)C(=O)N[C@H](C=O)C[C@@H]1CCNC1=O` (stereo partly shown) [Compound A198] displayed an IC50 of 0.006 µM.
Consider `CCCC[C@H](NC(=O)O[C@@H](c1ccc(F)cc1)C(F)(F)c1cccc(Cl)c1)C(=O)N[C@@H](C[C@@H]1CCNC1=O)C(=O)C(=O)NC1CC1` [Compound A199], for which the IC50 worked out at 0.494 µM.
`CCCC[C@H](NC(=O)O[C@H](c1ccc(F)cc1)C(F)(F)c1cccc(Cl)c1)C(=O)N[C@@H](C[C@@H]1CCNC1=O)C(=O)C(=O)NC1CC1` [Compound A200] yielded an IC50 of 0.0004 µM.
Then `CCCC[C@H](NC(=O)O[C@H](c1cccc(F)c1)C(F)(F)c1cccc(F)c1)C(=O)N[C@H](C=O)C[C@@H]1CCNC1=O` [Compound A201], with 0.001 µM; and `CC(C)C[C@H](NC(=O)O[C@@H](c1ccc(F)cc1)C(C)(C)c1cccc(Cl)c1)C(=O)N[C@H](C=O)C[C@@H]1CCNC1=O` [Compound A202], with 0.021 µM.
The molecule `NC(=O)C(=O)[C@H](C[C@@H]1CCNC1=O)NC(=O)[C@H](CC1CCCCC1)NC(=O)OC(c1ccccc1)C(F)(F)c1cccc(Cl)c1` (stereo partly shown) [Compound A204] showed an IC50 of 0.001 µM. Against the preceding molecule, the IC50 is about 21-fold lower.
As for `O=C[C@H](C[C@@H]1CCNC1=O)NC(=O)[C@H](CC1CCC1)NC(=O)O[C@H](c1ccccc1)C(F)(F)c1cccc(Cl)c1` [Compound A205], 0.0002 µM corresponded to half-maximal inhibition (IC50).
As for `CCNC(=O)C(=O)[C@H](C[C@H]1CCNC1=O)NC(=O)[C@H](CC1CCCCC1)NC(=O)OC(c1ccccc1)C(F)(F)c1cccc(Cl)c1` (stereo partly shown) [Compound A207], the IC50 was determined as 0.764 µM.
Then `CCC[C@H](NC(=O)O[C@H](c1ccccc1)C(F)(F)c1cccc(Cl)c1)C(=O)N[C@H](C=O)C[C@@H]1CCNC1=O` [Compound A208], with 0.004 µM.
`CCC(=O)OC([C@H](C[C@@H]1CCNC1=O)NC(=O)[C@H](CC1CCCCC1)NC(=O)O[C@@H](c1ccccc1)C(F)(F)c1cccc(Cl)c1)S(=O)(=O)O` (stereo partly shown) [Compound A211] yielded an IC50 of 0.504 µM.
Turning to `CCC(=O)OC([C@H](C[C@@H]1CCNC1=O)NC(=O)[C@H](CC1CCCCC1)NC(=O)O[C@H](c1ccccc1)C(F)(F)c1cccc(Cl)c1)S(=O)(=O)O` (stereo partly shown) [Compound A212], half-maximal inhibition (IC50) required 4.15 µM. This IC50 lies about 8.2-fold higher than the previous one.
Consider `CCCC[C@H](NC(=O)O[C@@H](c1ccccc1)C(F)(F)c1cccc(Cl)c1)C(=O)N[C@@H](C[C@@H]1CCNC1=O)C(OC(=O)CC)S(=O)(=O)O` (stereo partly shown) [Compound A213], for which half-maximal inhibition (IC50) required 5.02 µM.
Molecule `CCCC[C@H](NC(=O)O[C@H](c1ccccc1)C(F)(F)c1cccc(Cl)c1)C(=O)N[C@@H](C[C@@H]1CCNC1=O)C(OC(=O)CC)S(=O)(=O)O` (stereo partly shown) [Compound A214] showed an IC50 of 1.86 µM.
The molecule `CCCC[C@H](NC(=O)O[C@@H](c1ccccc1)C(C)(C)c1cccc(F)c1)C(=O)N[C@@H](C[C@@H]1CCNC1=O)C(=O)C(=O)NCC` [Compound A215] came in with an IC50 of 1.01 µM.
Then `CCCC[C@H](NC(=O)O[C@H](c1ccccc1)C(C)(C)c1cccc(F)c1)C(=O)N[C@@H](C[C@@H]1CCNC1=O)C(=O)C(=O)NCC` [Compound A216], with 0.006 µM; and `CCCC[C@H](NC(=O)O[C@@H](c1cccc(F)c1)C(F)(F)c1cccc(F)c1)C(=O)N[C@H](C=O)C[C@@H]1CCNC1=O` [Compound A217], with 0.01 µM; and `CCCCC[C@H](NC(=O)O[C@H](c1ccccc1)C(F)(F)c1cccc(Cl)c1)C(=O)N[C@H](C=O)C[C@@H]1CCNC1=O` [Compound A218], with 0.001 µM.
Take `O=C[C@H](C[C@@H]1CCNC1=O)NC(=O)[C@H](CCCF)NC(=O)OC(c1ccccc1)C(F)(F)c1cccc(Cl)c1` (stereo partly shown) [Compound A219]: the IC50 came out at 0.16 µM.
In the case of `CCNC(=O)C(=O)[C@H](C[C@@H]1CCNC1=O)NC(=O)[C@H](CC1CCCC1)NC(=O)O[C@@H](c1ccccc1)C(F)(F)c1cccc(Cl)c1` [Compound A220, (S)-2-(3-chlorophenyl)-2,2-difluoro-1-phenylethyl ((S)-3-cyclopentyl-1-(((S)-4-(ethylamino)-3,4-dioxo-1-((S)-2-oxopyrrolidin-3-yl)butan-2-yl)amino)-1-oxopropan-2-yl)carbamate] it was 0.183 µM.
For the molecule `CC(C)C[C@H](NC(=O)OC(C(C)C)C(F)(F)c1cccc(-c2ccccc2)c1)C(=O)N[C@H](C=O)C[C@@H]1CCNC1=O` (stereo partly drawn) [Compound A222, 1-([1,1′-Biphenyl]-3-yl)-1,1-difluoro-3-methylbutan-2-yl ((S)-4-methyl-1-oxo-1-(((S)-1-oxo-3-((S)-2-oxopyrrolidin-3-yl)propan-2-yl)amino)pentan-2-yl)carbamate], the IC50 was found to be 0.003 µM.
Consider `CC(C)C[C@H](NC(=O)O[C@@H](c1ccccc1)C(F)(F)c1cccc(F)c1)C(=O)N[C@H](C=O)C[C@@H]1CCNC1=O` [Compound A223, (S)-2,2-difluoro-2-(3-fluorophenyl)-1-phenylethyl ((S)-4-methyl-1-oxo-1-(((S)-1-oxo-3-((S)-2-oxopyrrolidin-3-yl)propan-2-yl)amino)pentan-2-yl)carbamate], for which it took 0.007 µM to reach half-maximal inhibition (IC50).
Then `CCCC[C@H](NC(=O)OC(c1ccccc1)C(F)(F)c1cccc(Cl)c1)C(=O)N[C@@H](C[C@@H]1CCNC1=O)C(=O)C(N)=O` (stereo partly drawn) [Compound A224, 2-(3-chlorophenyl)-2,2-difluoro-1-phenylethyl ((S)-1-(((S)-4-amino-3,4-dioxo-1-((S)-2-oxopyrolidin-3-yl)butan-2-yl)amino)-1-oxohexan-2-yl) carbamate], with 0.0001 µM.
Then `CC(C)C[C@H](NC(=O)O[C@@H](C(C)C)C(F)(F)c1cccc(-c2ccccc2)c1)C(=O)N[C@@H](C[C@@H]1CCNC1=O)C(=O)C(=O)NC1CC1` [Compound A226, 1-([1,1′-biphenyl]-3-yl)-1,1-difluoro-3-methylbutan-2-yl ((S)-1-(((S)-4-(cyclopropylamino)-3,4-dioxo-1-((S)-2-oxopyrrolidin-3-yl)butan-2-yl)amino)-4-methyl-1-oxopentan-2-yl)carbamate], with 0.062 µM; and `O=C(N[C@@H](CCC(F)F)C(=O)N[C@@H](C[C@@H]1CCNC1=O)C(=O)C(=O)NC1CC1)O[C@@H](c1ccccc1)C(F)(F)c1cccc(Cl)c1` [Compound A227, (S)-2-(3-chlorophenyl)-2,2-difluoro-1-phenylethyl ((S)-1-(((S)-4-(cyclopropylamino)-3,4-dioxo-1-((S)-2-oxopyrrolidin-3-yl)butan-2-yl)amino)-5,5-difluoro-1-oxopentan-2-yl)carbamate], with 0.412 µM.

These data come from patent US20240398757A1 (COCRYSTAL PHARMA, INC., priority 2022, published 2024).
